Laboratory results as given in paper PMC11522691, “Structure of the turnover-ready state of an ancestral respiratory complex I” (Nature Communications, 2024).

Target: T1, P. denitrificans complex I (Pd-CI, Pd-CI-ND), ubiquinone-binding site (Paracoccus denitrificans, UniProt A1B487+A1B495+A1B497)
T1 construct: gene nuoH; native 18-subunit complex from P. denitrificans membranes, His6 tag on Nqo5 (NDUFS3), DDM-purified, reconstituted in MSP2N2 phospholipid nanodiscs; NDUFS2-Arg65 dimethylated; ND3 N-formylMet; with NADH-quinone oxidoreductase subunit 1 (subunit F); NADH-quinone oxidoreductase subunit 2 (subunit E); NADH-quinone oxidoreductase subunit 3 (subunit G); NADH-quinone oxidoreductase subunit 5 (subunit C); NADH-quinone oxidoreductase subunit 7 (subunit A); NADH-quinone oxidoreductase subunit 9 (subunit I); NADH-quinone oxidoreductase subunit 10 (subunit J); NADH-quinone oxidoreductase subunit 11 (subunit K); NADH-quinone oxidoreductase subunit 12 (subunit L); NADH-quinone oxidoreductase subunit 13 (subunit M); NADH-quinone oxidoreductase subunit 14 (subunit N); NADH dehydrogenase [ubiquinone] iron-sulfur protein 4 homologue; NADH dehydrogenase [ubiquinone] iron-sulfur protein 6 homologue; NADH dehydrogenase [ubiquinone]; 1 alpha subcomplex subunit 12 homologue; Protein-L-isoaspartate O-methyltransferase
Experiment: cryo-EM structure of the complex, […] Å
Details: closed resting state, oxidised; headgroup partially inserted near ND1-Arg38, Trp41, Met244, Lys295 and NDUFS7-Arg77; nanodiscs with added Q10

T1 sequence (A1B497 whole entry): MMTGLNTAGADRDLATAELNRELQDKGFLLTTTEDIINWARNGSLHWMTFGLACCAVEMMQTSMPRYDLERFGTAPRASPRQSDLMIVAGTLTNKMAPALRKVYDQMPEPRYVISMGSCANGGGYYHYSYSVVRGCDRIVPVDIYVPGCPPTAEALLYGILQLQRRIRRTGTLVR
T1 sequence (A1B495 whole entry): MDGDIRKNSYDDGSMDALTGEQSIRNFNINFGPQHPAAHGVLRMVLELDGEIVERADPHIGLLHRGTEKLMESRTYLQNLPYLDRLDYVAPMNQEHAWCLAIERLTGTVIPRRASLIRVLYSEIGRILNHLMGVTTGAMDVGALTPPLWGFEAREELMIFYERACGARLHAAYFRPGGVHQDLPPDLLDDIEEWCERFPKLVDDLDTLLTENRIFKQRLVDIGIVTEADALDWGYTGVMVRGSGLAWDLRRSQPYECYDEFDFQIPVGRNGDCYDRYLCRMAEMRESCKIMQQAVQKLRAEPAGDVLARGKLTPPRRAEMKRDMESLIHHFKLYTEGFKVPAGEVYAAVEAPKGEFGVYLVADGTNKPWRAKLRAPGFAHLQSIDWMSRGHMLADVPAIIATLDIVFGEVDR
T1 sequence (A1B487 whole entry): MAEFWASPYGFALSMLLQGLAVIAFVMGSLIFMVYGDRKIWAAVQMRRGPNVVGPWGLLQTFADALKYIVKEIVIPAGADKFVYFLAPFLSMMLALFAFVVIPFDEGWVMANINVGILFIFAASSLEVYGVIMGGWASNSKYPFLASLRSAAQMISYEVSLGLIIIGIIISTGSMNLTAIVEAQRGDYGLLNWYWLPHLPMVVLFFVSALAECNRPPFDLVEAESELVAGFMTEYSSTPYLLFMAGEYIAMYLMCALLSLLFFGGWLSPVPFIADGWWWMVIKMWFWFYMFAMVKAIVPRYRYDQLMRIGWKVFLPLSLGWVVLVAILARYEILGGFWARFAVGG

With `COC1=C(OC)C(=O)C(C/C=C(\C)CC/C=C(\C)CC/C=C(\C)CC/C=C(\C)CC/C=C(\C)CC/C=C(\C)CC/C=C(\C)CC/C=C(\C)CC/C=C(\C)CCC=C(C)C)=C(C)C1=O` [ubiquinone-10] the “cryo-EM structure of the complex, 2.3 Å” value was “Density in the central polar region of the channel has been assigned to a partially inserted ubiquinone-10”.
